Data published in ChEMBL document CHEMBL1201862, “PubChem BioAssay data set” (2004).
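Step 1: Grow cells in 96-well plates. Step 2: Expose to compound for 48 hours at 5 concentrations. Step 3: Interpolate endpoints linearly; if unreached, use highest concentration. GI50 marks 50% less growth.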 Calls of active or inactive are those of the source. No stated cut-off is given here; in the data, active = GI50 up to about 1.1 µM and inactive = higher.

How the values were obtained:
Assay in all cases: growth of human tumour cells (NCI), 48 h
M14 = test system: M14
RXF 393 = test system: RXF 393
A549 = test system: A549
A498 = test system: A498
U-251 = test system: U-251
T47D = test system: T47D
SK-MEL-28 = test system: SK-MEL-28
SW-620 = test system: SW-620
SF-268 = test system: SF-268
OVCAR-5 = test system: OVCAR-5
CCRF-CEM = test system: CCRF-CEM
MDA-MB-435 = test system: MDA-MB-435
SK-MEL-5 = test system: SK-MEL-5
HT-29 = test system: HT-29
786-0 = test system: 786-0
UACC-62 = test system: UACC-62
HOP-62 = test system: HOP-62
NCI-H23 = test system: NCI-H23
RPMI-8226 = test system: RPMI-8226
SF-295 = test system: SF-295

Measured: GI50

Clc1cc(Cl)cc(/C=N/C23CC4CC(CC(C4)C2)C3)c1
inactive: M14 > 10 µM | RXF 393 > 10 µM | A549 > 10 µM | A498 > 10 µM | U-251 > 10 µM | T47D > 10 µM | SK-MEL-28 > 10 µM | SW-620 > 10 µM | SF-268 > 10 µM | OVCAR-5 > 10 µM | CCRF-CEM > 10 µM | MDA-MB-435 > 10 µM | SK-MEL-5 > 10 µM | HT-29 > 10 µM | 786-0 > 10 µM | UACC-62 > 10 µM | HOP-62 > 10 µM | NCI-H23 > 10 µM | RPMI-8226 > 10 µM | SF-295 > 10 µM
